These results are taken from publication PMC6797481, “Identification of an allosteric binding site on the human glycine transporter, GlyT2, for bioactive lipid analgesics” (eLife, 2019).

One assay deals with T1, GlyT2 Y550L mutant (Homo sapiens, UniProt Q9Y345, Y550L).
T1 construct: expressed in transfected cells; host or cells: Xenopus laevis oocytes (cRNA injection)
T1 sequence (Q9Y345 1-797 Y550L): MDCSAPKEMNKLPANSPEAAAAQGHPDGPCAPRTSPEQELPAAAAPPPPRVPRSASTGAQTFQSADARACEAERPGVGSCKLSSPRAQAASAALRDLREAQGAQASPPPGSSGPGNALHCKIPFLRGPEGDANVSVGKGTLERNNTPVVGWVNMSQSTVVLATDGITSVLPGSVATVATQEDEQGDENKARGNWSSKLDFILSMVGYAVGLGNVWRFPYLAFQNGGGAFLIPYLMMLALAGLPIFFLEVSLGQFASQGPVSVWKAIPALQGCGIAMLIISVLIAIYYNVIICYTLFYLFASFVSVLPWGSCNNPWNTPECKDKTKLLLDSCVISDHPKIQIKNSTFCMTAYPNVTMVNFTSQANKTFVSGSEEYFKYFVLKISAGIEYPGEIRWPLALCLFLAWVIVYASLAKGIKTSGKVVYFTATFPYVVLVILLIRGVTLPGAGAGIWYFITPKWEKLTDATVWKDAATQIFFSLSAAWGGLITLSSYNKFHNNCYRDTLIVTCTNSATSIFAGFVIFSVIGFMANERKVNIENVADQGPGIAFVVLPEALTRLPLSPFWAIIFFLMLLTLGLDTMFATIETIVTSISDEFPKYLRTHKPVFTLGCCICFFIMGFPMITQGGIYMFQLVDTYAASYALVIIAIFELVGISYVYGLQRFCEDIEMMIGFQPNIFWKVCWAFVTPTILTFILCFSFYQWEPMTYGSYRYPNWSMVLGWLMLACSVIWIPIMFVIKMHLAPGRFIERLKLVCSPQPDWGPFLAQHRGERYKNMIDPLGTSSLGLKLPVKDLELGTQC
Nature of the assay: Glycine transport currents, two electrode voltage clamp, oocytes expressing GlyT2 Y550L. In kind it is cell-based. Particulars: for % Max. inhibition: mean ± SEM. On the procedure: (§1) Glycine was first applied to establish maximal transport current.
(§2) Compounds were tested for inhibition of glycine transport on Xenopus laevis oocytes expressing mutant GlyT1 and GlyT2 transporters. n values are in brackets, with measurements taken from at least 2 batches of oocytes.

A further assay has as its target T2, GlyT2 L569F mutant (Homo sapiens, UniProt Q9Y345, L569F).
T2 construct: expressed in transfected cells; host or cells: Xenopus laevis oocytes (cRNA injection)
T2 sequence (Q9Y345 1-797 L569F): T1 sequence (Q9Y345 1-797 Y550L) with L550Y, L569F
Nature of the assay: Glycine transport currents, two electrode voltage clamp, oocytes expressing GlyT2 L569F. In kind it is cell-based. Particulars: for % Max. inhibition: mean ± SEM. On the procedure: as §1, §2

The target of a further assay is T3, GlyT1 L425I mutant (Homo sapiens, UniProt P48067, L439I).
T3 construct: expressed in transfected cells; host or cells: Xenopus laevis oocytes (cRNA injection)
T3 sequence (P48067 1-652 isoform P48067-3 L385I): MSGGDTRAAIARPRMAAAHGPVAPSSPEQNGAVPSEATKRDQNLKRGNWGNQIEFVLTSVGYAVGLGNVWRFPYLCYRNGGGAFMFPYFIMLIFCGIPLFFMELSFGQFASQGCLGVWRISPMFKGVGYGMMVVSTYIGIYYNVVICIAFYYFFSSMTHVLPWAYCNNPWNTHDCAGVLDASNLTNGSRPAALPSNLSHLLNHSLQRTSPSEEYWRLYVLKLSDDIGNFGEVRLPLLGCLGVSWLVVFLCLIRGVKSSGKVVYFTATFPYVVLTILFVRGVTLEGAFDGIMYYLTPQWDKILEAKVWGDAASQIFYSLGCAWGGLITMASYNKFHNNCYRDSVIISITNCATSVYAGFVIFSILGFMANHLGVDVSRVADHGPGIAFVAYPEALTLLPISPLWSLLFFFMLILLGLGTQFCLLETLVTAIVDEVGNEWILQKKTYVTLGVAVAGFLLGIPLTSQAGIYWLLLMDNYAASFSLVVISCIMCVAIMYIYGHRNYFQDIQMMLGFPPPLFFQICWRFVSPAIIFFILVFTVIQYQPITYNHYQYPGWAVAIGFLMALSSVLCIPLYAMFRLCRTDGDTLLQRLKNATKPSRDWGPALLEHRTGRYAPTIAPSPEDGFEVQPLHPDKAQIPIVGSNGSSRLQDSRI
Nature of the assay: Glycine transport currents, two electrode voltage clamp, oocytes expressing GlyT1 L425I. The format is cell-based. Conditions: for % Max. inhibition: mean ± SEM; for sensitivity of GlyT1 L425I to inhibition: similar to the WT GlyT1 response. The method, then: as §1, §2
(In general: Two-electrode voltage clamp holds a large cell at a set potential and records current.)

For a further assay, the system named is GlyT1 WT. Also on record: method as in earlier work. Particulars: previously published; cited from earlier work.
Setting [1] is: GlyT1 L425I, greater than maximum concentration applied (footnote a).
Setting [2] is: GlyT2 Y550L, greater than maximum concentration applied (footnote a).

Residue numbers refer to the chain shown, from its start. Where only a bound is given, the exact number is not on record here.

As usually defined, the EC50 is the concentration that produces a half-maximal response. Read a low EC50 as greater potency. Regarding `NCC(=O)O` [Glycine], the EC50 on GlyT2 Y550L mutant (glycine transport, GlyT2 Y550L (EL4)) was found to be 62.2 ± 11.4 µM; at GlyT2 L569F mutant (glycine transport, GlyT2 L569F (TM8)), 7 ± 0.6 µM; at GlyT1 L425I mutant (glycine transport, GlyT1 mutant printed I425L (EL4)), 45.1 ± 9.6 µM.

The IC50 is the concentration that inhibits the measured activity by half. As to `CCCCC/C=C\C/C=C\C/C=C\C/C=C\CCCC(=O)NCC(=O)O` [N-arachidonyl Glycine, reference compound], the IC50 against GlyT2 L569F mutant (GlyT2 L569F, mean (95% CI)) is 3.59 µM; on GlyT1 L425I mutant (setting [1]), over 10 µM; in the assay with GlyT1 WT, over 10 µM. Besides, the “% Max. inhibition” value is 63.7 ± 19.0 (p=0.9990) % at GlyT2 L569F mutant (GlyT2 L569F) and 31.6 ± 6.9 (p=0.0361) % at GlyT1 L425I mutant (GlyT1 L425I).

With `CCCCCCCC/C=C\CCCCCCCC(=O)NCC(=O)O` [N-oleoyl Glycine, reference compound], the IC50 is 0.829 µM at GlyT2 Y550L mutant (GlyT2 Y550L, mean (95% CI)); over 10 µM at GlyT2 L569F mutant (GlyT2 L569F, greater than maximum concentration applied (footnote a)); over 10 µM at GlyT1 L425I mutant (setting [1]); over 10 µM in the assay with GlyT1 WT. Also, the figures for the “% Max. inhibition” value on GlyT2 Y550L mutant (GlyT2 Y550L) and on GlyT2 L569F mutant (GlyT2 L569F) were 34.8 ± 9.1 (p=0.0011) % and 32.5 ± 3.6 (p=0.0005) %, respectively. On GlyT1 L425I mutant (GlyT1 L425I, footnote b), the “% Max. inhibition (% inhibition at the highest concentration of inhibitor used)” value was 28.5 ± 5.3^b (p=0.0564) %. The “sensitivity of GlyT1 L425I to inhibition” value on GlyT1 L425I mutant is reported as “insensitive”.

In the case of `CCCCCCCC/C=C\CCCCCCCC(=O)O[C@H](CC(=O)[O-])C[N+](C)(C)C` [oleoyl L-Carnitine, reference compound], the IC50 at GlyT2 Y550L mutant (setting [2]) was over 3 µM; at GlyT2 L569F mutant (GlyT2 L569F, mean (95% CI)), 1.2 µM; with GlyT1 WT, over 10 µM. In addition, the “% Max. inhibition” value on GlyT2 Y550L mutant (GlyT2 Y550L) is listed as 17.3 ± 1.4 (p=0.0001) %; on GlyT1 L425I mutant (GlyT1 L425I), 74.6%. In addition, at GlyT2 L569F mutant (GlyT2 L569F, footnote b), the “% Max. inhibition (% inhibition at the highest concentration of inhibitor used)” value was 45.5 ± 7.0^b (p=0.0038) %.

For the compound `CCCCCCCC/C=C\CCCCCCCC(=O)N[C@@H](CC(=O)O)C(=O)O` [oleoyl l-Aspartate], the “% Max. inhibition (% inhibition at the highest concentration of inhibitor used)” value on GlyT2 Y550L mutant (GlyT2 Y550L, footnote b) is recorded as 7.0 ± 0.8^b (p=0.0001) %. Besides, the IC50 is over 3 µM against GlyT2 Y550L mutant (setting [2]) and over 10 µM in the assay on GlyT1 WT.

On to `CCCCCCCC/C=C\CCCCCCCC(=O)N[C@@H](CCCCN)C(=O)O` [oleoyl l-Lysine], for which the half-inhibitory concentration (IC50) on GlyT2 Y550L mutant (GlyT2 Y550L, mean (95% CI)) is 0.21 µM; against GlyT2 L569F mutant (GlyT2 L569F, mean (95% CI)), 0.301 µM; on GlyT1 L425I mutant (GlyT1 L425I, mean (95% CI)), 0.236 µM; in the assay on GlyT1 WT, over 3 µM. The “% Max. inhibition” value is 48.2 ± 4.1 (p=0.0001) % at GlyT2 Y550L mutant (GlyT2 Y550L), 76.8 ± 5.8 (p=0.4504) % at GlyT2 L569F mutant (GlyT2 L569F) and 95.6% at GlyT1 L425I mutant (GlyT1 L425I). Also, the “fold lower apparent affinity at GlyT1 L425I” value at GlyT1 L425I mutant (GlyT1 L425I compared with WT GlyT2) amounted to 9 fold.

Consider `CCCCCCCC/C=C\CCCCCCCC(=O)N[C@@H](Cc1c[nH]c2ccccc12)C(=O)O` [oleoyl l-Tryptophan], for which the IC50 at GlyT2 Y550L mutant (setting [2]) is over 3 µM; against GlyT1 L425I mutant (setting [1]) it was over 3 µM; in the assay with GlyT1 WT, over 10 µM. The “% Max. inhibition” value was 16.5 ± 1.7 (p=0.0001) % at GlyT2 Y550L mutant (GlyT2 Y550L) and 35.7 ± 13.2 (p=0.2787) % at GlyT1 L425I mutant (GlyT1 L425I). On GlyT1 L425I mutant, the “sensitivity of GlyT1 L425I to inhibition” value is given as “insensitive”.

With `CCCCCCCC/C=C\CCCCCCCC(=O)N[C@H](C(=O)O)C(C)C` [oleoyl l-Valine], the IC50 on GlyT2 Y550L mutant (GlyT2 Y550L, mean (95% CI)) was 2.93 µM; in the assay with GlyT1 WT, over 30 µM. The “% Max. inhibition” value on GlyT2 Y550L mutant (GlyT2 Y550L) is recorded as 57.0 ± 5.1 (p=0.0028) %.

As to oleoyl d-Lysine, the IC50 against GlyT2 Y550L mutant (setting [2]) and in the assay with GlyT1 WT was over 3 µM throughout. The “% Max. inhibition” value on GlyT2 Y550L mutant (GlyT2 Y550L) is recorded as 38.4 ± 10.0 (p=0.0010) %.
